The text below walks through data of US20250066864A1, “METHODS FOR IDENTIFYING ADAR1 INHIBITORS, AND COMPOSITIONS AND METHODS OF USE IN TREATING CANCER” (The Wistar Institute of Anatomy and Biology, priority 2021, published 2025).

The target of experiment [1] is T1, ADAR1p110 (Homo sapiens, UniProt P55265).
T1 construct: HAT (N); FLAG (alternative preparation, not on the same molecule as HAT) (N); made in house; host or cells: Sf9 insect cells, baculovirus
T1 sequence (P55265 1-931 isoform P55265-5): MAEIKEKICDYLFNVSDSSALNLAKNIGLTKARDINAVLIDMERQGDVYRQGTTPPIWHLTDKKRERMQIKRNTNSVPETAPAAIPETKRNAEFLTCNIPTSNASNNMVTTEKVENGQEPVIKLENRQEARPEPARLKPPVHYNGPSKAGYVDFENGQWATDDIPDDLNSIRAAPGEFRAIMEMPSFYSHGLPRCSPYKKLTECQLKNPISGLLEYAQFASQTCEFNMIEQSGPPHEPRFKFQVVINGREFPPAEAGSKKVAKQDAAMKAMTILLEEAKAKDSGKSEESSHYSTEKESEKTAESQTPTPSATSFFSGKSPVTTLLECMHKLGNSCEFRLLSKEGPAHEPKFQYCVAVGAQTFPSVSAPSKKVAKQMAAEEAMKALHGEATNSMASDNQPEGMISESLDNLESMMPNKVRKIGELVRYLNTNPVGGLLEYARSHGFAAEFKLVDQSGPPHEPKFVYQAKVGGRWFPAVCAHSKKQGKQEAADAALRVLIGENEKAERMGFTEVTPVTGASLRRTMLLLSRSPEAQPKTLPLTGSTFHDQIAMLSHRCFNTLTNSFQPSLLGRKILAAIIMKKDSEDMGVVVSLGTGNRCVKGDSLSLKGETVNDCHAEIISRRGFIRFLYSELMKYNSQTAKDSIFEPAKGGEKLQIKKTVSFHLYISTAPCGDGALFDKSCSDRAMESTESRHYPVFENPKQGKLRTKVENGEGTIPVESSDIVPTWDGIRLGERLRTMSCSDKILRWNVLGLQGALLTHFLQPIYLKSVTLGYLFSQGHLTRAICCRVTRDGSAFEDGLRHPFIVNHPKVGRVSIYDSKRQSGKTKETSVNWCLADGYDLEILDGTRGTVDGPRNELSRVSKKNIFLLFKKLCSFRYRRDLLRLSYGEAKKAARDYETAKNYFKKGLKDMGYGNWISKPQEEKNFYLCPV
Put plainly: in vitro editing assay with recombinant ADAR1p110 and dsRNA or DNA:RNA substrates. In kind it is biochemical. The settings on record: for inhibitory potency of ADAR1 p110 editing activity (SAR analogs): data not shown. On the procedure: FIG. 26A-FIG. 26B show determination of IC50 by in vitro editing assay. In vitro editing assay using purified ADAR1p110 protein and two different substrates, matched (left) and mismatched (right) dsRNAs, was conducted in the presence of varying concentrations of compound #1 (FIG. 26A) or #13 (FIG. 26B) in order to estimate IC50 values for these compounds. In vitro editing was carried out using HAT-ADAR1p110 or HAT-ADAR2 recombinant protein (10 nM) and two different dsRNA substrates carrying a part of the CDK13 gene sequence (5 nM) at 37° C. for 2 hrs as described previously (12). Compounds were dissolved in 100% DMSO. The in vitro assay contained DMSO at final concentration of 16%.
The in vitro editing reaction mixture, containing 5 nM of telomere RNA:RNA duplex substrates and 75 nM of HAT-ADAR1p110-WT, FLAG-ADAR1p110-WT, or HA-ADAR1p110-EAA protein, was incubated at 37° C. for 2 h in in vitro editing buffer I (20 mM HEPES-KOH pH 7.5, 100 mM NaCl, 0.01% NP-40, 5% glycerol, 1 mM DTT). For editing of RNA:DNA hybrid substrates, in vitro editing buffer II (20 mM HEPES-KOH pH 7.5, 20 mM NaCl, 0.01% NP-40, 5% glycerol, 1 mM DTT) was used. Edited RNA or DNA strands were purified using Dynabeads MyOne Streptavidin C1 (Thermo Fisher Scientific). To remove opposite RNA or DNA strands, rNase H (NEB) or TURBO dNase (Thermo Fisher Scientific) was used, respectively. For sequencing of edited substrates, reverse transcription-PCR was carried out for RNA strands, while PCR was carried out for DNA strands. RT reactions were carried out using SuperScript III Reverse Transcriptase (Thermo Fisher Scientific), and PCR reactions were performed using Platinum Taq DNA polymerase (Thermo Fisher Scientific). PCR products were sequenced using a specific sequencing primer, and the ratio of A and G peaks in the chromatograms were analyzed by CodonCode Aligner (CodonCode Corporation).
The 54 compounds identified in the high-throughput screen were further tested in the in vitro editing assay described in Examples 1 and 2. The in vitro editing reaction mixture, containing 5 nM of telomere RNA:RNA duplex substrates and 75 nM of HAT-ADAR1p110-WT, FLAG-ADAR1p110-WT, or HA-ADAR1p110-EAA protein, was incubated at 37° C. for 2 h in in vitro editing buffer I (20 mM HEPES-KOH pH 7.5, 100 mM NaCl, 0.01% NP-40, 5% glycerol, 1 mM DTT) with 10 microM test compound. For editing of RNA:DNA hybrid substrates, in vitro editing buffer II (20 mM HEPES-KOH pH 7.5, 20 mM NaCl, 0.01% NP-40, 5% glycerol, 1 mM DTT) was used. Edited RNA or DNA strands were purified using Dynabeads MyOne Streptavidin C1 (Thermo Fisher Scientific). To remove opposite RNA or DNA strands, Rnase H (NEB) or TuRBO Dnase (Thermo Fisher Scientific) was used, respectively. For sequencing of edited substrates, reverse transcription-PCR was carried out for RNA strands, while PCR was carried out for DNA strands. RT reactions were carried out using SuperScript III Reverse Transcriptase (Thermo Fisher Scientific), and PCR reactions were performed using Platinum Taq DNA polymerase (Thermo Fisher Scientific). PCR products were sequenced using a specific sequencing primer, and the ratio of A and G peaks in the chromatograms were analyzed by CodonCode Aligner (CodonCode Corporation).

The subject of experiment [2] is U2OS cells. Kind of experiment: Apo Tox-Glo viability assay, U2OS cells. In kind it is cell-based, human. The settings on record: 5 μM, 3 days. On the procedure: (§1) HeLa, U2OS, and MRI90 cells were cultured in the presence of ADAR1 inhibitors, 5 μM or 20 μM, for 3 days. Their viability was examined using the Apo Tox-Glo assay system (Promega), which measures plasma membrane penetration of glycyl-phenyl-alanyl-aminofluorocoumarin peptide. Control, 0.3% DMSO. […] Data are mean±S.D. (n=3, biological replicates).
(§2) FIGS. 29A-29D Characterization of Compound #13 effects in cancer cells. […] Viability was examined using the Apo Tox-Glo assay system (Promega). Control, 0.3% DMSO. (FIG. 29B) Western blotting analysis of HeLa cells treated with Compound #13 (10 μM). […] (FIG. 29D) Activation of the IFN signaling pathway. HSC-4 squamous carcinoma cells were treated with Compound #13 at 10 μM (12 hrs). RNA samples were analyzed by qRT-PCR to monitor expression levels of ISGs.

Experiment [3] concerns HeLa cells. Kind of experiment: Apo Tox-Glo viability assay, HeLa cells. The experiment is classed as cell-based, human. The settings on record: 5 μM, 3 days. On the procedure:
as §1, §2

The subject of experiment [4] is IMR90 normal fibroblast cells. Put plainly: Apo Tox-Glo viability assay, IMR90 normal fibroblast cells. In kind it is cell-based. The settings on record: 5 μM, 3 days. On the procedure: as §1, §2
[5] abbreviates: DNA:RNA mismatched hybrid substrate, read-out: IC50 estimated by in vitro editing assay, DNA:mmRNA.
[6] abbreviates: matched dsRNA substrate, read-out: IC50 estimated by in vitro editing assay, RNA:RNA.
Setting [7] is: mismatched dsRNA substrate, read-out: IC50 estimated by in vitro editing assay, RNA:mmRNA.

Entries after “also recorded” stand apart in the source; their conditions may differ. Read-outs that look alike come from different tables or passages of the source.

For orientation: IC50 means the concentration at which inhibition is half-maximal. For `CSc1nc(SC)c(C#N)c(-c2ccco2)n1` [compound 52, 4-(furan-2-yl)-2,6-bis(methylsulfanyl)pyrimidine-5-carbonitrile], in experiment [1] (setting [5]), the IC50 is 1.5 to 3 µM. In experiment [1] (matched dsRNA substrate, FIG. 25C, 10 microM test compound), the “inhibition of editing of A:U matched dsRNA” value is recorded as “not A:U matched dsRNA”. Also, the “inhibition of editing of A-C mismatched dsRNA” value is recorded as “inhibited A-C mismatched dsRNA” in experiment [1] (mismatched dsRNA substrate, FIG. 25C, 10 microM test compound) and “more specific inhibitory effects on adenosine at A-C mismatched base pairs” in experiment [1] (mismatched dsRNA substrate, FIG. 25C, 10 microM test compound, listed as #52).

For the compound `O=C(Nc1ccccc1)c1sc2ccccc2c1Cl` [Compound #13-Analog 1], the “inhibitory potency of ADAR1 p110 editing activity (SAR analogs)” value in experiment [1] was “complete loss of inhibitory potency; also recorded: inactive compound”.

For the compound `N#Cc1ccccc1NC(=O)c1sc2ccccc2c1Cl` [Compound #13-Analog 2], in experiment [1], the “inhibitory potency of ADAR1 p110 editing activity (SAR analogs)” value is given as “weaker but retained A-to-I editing inhibitory activity”.

As for `CSc1[nH]nc(-c2ccc(Cl)cc2)c1C#N` [compound 27, 5-(4-chlorophenyl)-3-methylsulfanyl-1H-pyrazole-4-carbonitrile], the “viability of U2OS (ALT) cells” value in experiment [2] was “very little effects”. For the same compound, in experiment [1] (setting [5]), the half-maximal inhibitory concentration (IC50) was 5 to 17 µM. Further, the “viability of HeLa (non-ALT) cells” value in experiment [3] is listed as “significantly decreased viability; also recorded: significantly reduced viability”. In addition, the “viability of MRI90 (normal fibroblast) cells” value (from here on “viability of MRI90”) in experiment [4] is listed as “very little effects”.

With `N#Cc1c(-c2ccccc2)cc(SCc2ccc(Cl)cc2)n2c1nc1ccccc12` [compound 23, 1-[(4-chlorophenyl)methylsulfanyl]-3-phenylpyrido[1,2-a]benzimidazole-4-carbonitrile], the IC50 in experiment [1] (setting [6]) is 66.9 µM; in experiment [1] (mismatched dsRNA substrate, adenosine position 6, read-out: IC50 estimated by in vitro editing assay, RNA:mmRNA, Position 6), 66.4 µM.

`Cc1cc(C)n(-c2ccc(N3CCSCC3)nn2)n1` [compound 37, 4-[6-(3,5-dimethylpyrazol-1-yl)pyridazin-3-yl]thiomorpholine]: the IC50 in experiment [1] (setting [5]) is 3 to 10 µM; in experiment [1] (matched dsRNA substrate, adenosine position 2, read-out: IC50 estimated by in vitro editing assay, RNA:RNA, Position 2) it was 68.5 µM; in experiment [1] (matched dsRNA substrate, adenosine positions 3 & 6, read-out: IC50 estimated by in vitro editing assay, RNA:RNA, Position 3 & 6) it was 3 µM; in experiment [1] (setting [7]) it was 46 µM.

Regarding `Cc1cc(C)n2nc(-c3ccccc3)cc2n1` [compound 6, 5,7-dimethyl-2-phenylpyrazolo[1,5-a]pyrimidine], the “viability of U2OS (ALT) cells” value in experiment [2] was “very little effects”. For the same compound, the IC50 in experiment [1] (setting [5]) is 30 to 76 µM. For the same compound, the “viability of HeLa (non-ALT) cells” value in experiment [3] is on record as “significantly decreased viability; also recorded: significantly reduced viability”. In addition, the “viability of MRI90” value in experiment [4] was “very little effects”.

Take `COc1cc(C2=NNC(=O)CC2)cc(OC)c1OC` [compound 40, 3-(3,4,5-trimethoxyphenyl)-4,5-dihydro-1H-pyridazin-6-one]: the IC50 in experiment [1] (setting [6]) is 57.6 µM; in experiment [1] (setting [7]) it was 27.2 µM.

For `NC(=NOC(=O)c1ccc([N+](=O)[O-])o1)c1ccc(OCc2ccc(Cl)cc2)c(Cl)c1` [Compound #1, [[amino-[3-chloro-4-[(4-chlorophenyl)methoxy]phenyl]methylidene]amino]5-nitrofuran-2-carboxylate], the IC50 in experiment [1] (setting [6]) was 27 µM; in experiment [1] (setting [7]), 33 µM. Besides, the “viability of HeLa (non-ALT) cells” value in experiment [3] is listed as “significantly decreased viability; also recorded: significantly reduced viability”. For the same compound, the “viability of MRI90” value in experiment [4] is recorded as “very little effects”.
